Source: patent US8183243B2, “Melanocortin receptor agonists” (LG Life Sciences Ltd., priority 2008, dated 2012)
Read-outs that look alike come from different tables or passages of the source.

Biological target: T1, MC4R (Homo sapiens, UniProt P32245)
T1 construct: expressed in transfected cells; host or cells: HEK (Human Embryonic Kidney) permanent expression cell line HEK MC4R-Luc, co-expressing CRE-luciferase
Assay: MCR agonistic activity (luciferase assay / cAMP accumulation assay) on MC4R
Type: cell-based
Details: HEK cell lines expressing MC4R, not said which
Method in brief: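 HEK cells stably expressing MC4R with a CRE-luciferase reporter treated 5 hours at 37 °C with serially diluted agonist (≤1% DMSO); luminescence expressed relative to 10 nM NDP-MSH, EC50 at half-maximal signal. Alternatively, cAMP measured after 30 minutes with compound plus 500 μM IBMX by [3H]-cAMP competition binding.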

[1] = method A (CRE-luciferase) or B (cAMP accumulation), read-out: EC50 value, agonistic activity to MC4R (range per group of Examples)

T1 sequence (P32245 whole entry, species assumed): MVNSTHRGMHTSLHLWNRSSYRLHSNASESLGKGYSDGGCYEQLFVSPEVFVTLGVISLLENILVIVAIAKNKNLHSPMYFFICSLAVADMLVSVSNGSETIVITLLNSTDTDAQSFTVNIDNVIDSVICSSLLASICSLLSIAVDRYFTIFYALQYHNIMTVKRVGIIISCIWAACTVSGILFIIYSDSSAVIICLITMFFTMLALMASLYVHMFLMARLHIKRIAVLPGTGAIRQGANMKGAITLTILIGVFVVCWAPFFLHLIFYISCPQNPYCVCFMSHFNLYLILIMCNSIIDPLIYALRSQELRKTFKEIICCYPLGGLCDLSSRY

Row | SMILES | EC50 [1] | EC50 (specific activities of representative compounds, method A or B, read-out: EC50)
1 | CC(C)N1CCN(C(=O)[C@@H]2C[C@H](N(C(=O)[C@@H]3CCCO3)C3CCC(C)(C)CC3)CN2C(=O)[C@@H]2CN(C3CCOCC3)C[C@H]2c2ccc(F)cc2F)CC1 [Example 47, (2S)-N-{(3S,5S)-1-{[(3S,4R)-4-(2,4-difluorophenyl)-1-(tetrahydro-2H-pyran-4-yl)pyrrolidin-3-yl]carbonyl}-5-[(4-isopropylpiperazin-1-yl)carbonyl]pyrrolidin-3-yl}-N-(4,4-dimethylcyclohexyl)tetrahydrofuran-2-carboxamide] | 10 to 100 nM | –
2 | CN1CCN(C(=O)[C@@H]2C[C@H](N(C(=O)C(C)(C)CO)C3CCC(C)(C)CC3)CN2C(=O)[C@@H]2CN(C(C)(C)C)C[C@H]2c2ccc(F)cc2F)CC1 [Example 15, N-{(3S,5S)-1-{[(3S,4R)-1-tert-butyl-4-(2,4-difluorophenyl)pyrrolidin-3-yl]carbonyl}-5-[(4-methylpiperazin-1-yl)carbonyl]pyrrolidin-3-yl}-N-(4,4-dimethylcyclohexyl)-3-hydroxy-2,2-dimethylpropanamide] | 0.1 to 10 nM | –
3 | CN1CCN(C(=O)[C@@H]2C[C@H](N(C(=O)C(C)(C)C)[C@H]3CC[C@@H](C)CC3)CN2C(=O)[C@@H]2CN(C3CCOCC3)C[C@H]2c2ccc(F)cc2F)CC1 [Example 53, N-{(3S,5S)-1-{[(3S,4R)-4-(2,4-difluorophenyl)-1-(tetrahydro-2H-pyran-4-yl)pyrrolidin-3-yl]carbonyl}-5-[(4-methylpiperazin-1-yl)carbonyl]pyrrolidin-3-yl}-2,2-dimethyl-N-(cis-4-methylcyclohexyl)propanamide] | 0.1 to 10 nM | –
4 | CN1CCN(C(=O)[C@H]2C[C@H](N(C(=O)[C@@H]3CCCO3)[C@H]3CC[C@@H](C)CC3)CN2C(=O)[C@@H]2CN(C3CC3)C[C@H]2c2ccc(Cl)cc2)CC1 [Example 57, (2S)-N-{(3S,5R)-1-{[(3S,4R)-4-(4-chlorophenyl)-1-cyclopropylpyrrolidin-3-yl]carbonyl}-5-[(4-methylpiperazin-1-yl)carbonyl]pyrrolidin-3-yl}-N-(cis-4-methylcyclohexyl)tetrahydrofuran-2-carboxamide] | 10 to 100 nM | –
5 | CN1CCN(C(=O)[C@H]2C[C@H](N(C(=O)[C@@H]3CCCO3)C3CCC(C)(C)CC3)CN2C(=O)[C@@H]2CN(C3CC3)C[C@H]2c2ccc(Cl)cc2)CC1 [Example 55, (2S)-N-{(3S,5R)-1-{[(3S,4R)-4-(4-chlorophenyl)-1-cyclopropylpyrrolidin-3yl]carbonyl}-5-[(4-methylpiperazin-1-yl)carbonyl]pyrrolidin-3-yl}-N-(4,4-dimethylcyclohexyl)tetrahydrofuran-2-carboxamide] | 10 to 100 nM | –
6 | Cc1ccc(N2C[C@@H](C(=O)N3C[C@@H](N(C(=O)C(C)(C)C)C4CCC(C)(C)CC4)C[C@H]3C(=O)N3CCN(C)CC3)[C@H](c3ccc(Cl)cc3)C2)nn1 [Example 63, N-{(3S,5S)-1-{[(3S,4R)-4-(4-chlorophenyl)-1-(6-methylpyridazine-3-yl)pyrrolidin-3-yl]carbonyl}-5-[(4-methylpiperazin-1-yl)carbonyl]pyrrolidin-3-yl}-N-(4,4-dimethylcyclohexyl)-2,2-dimethylpropanamide] | 10 to 100 nM | –
7 | CC(C)N1CCN(C(=O)[C@H]2C[C@H](N(C(=O)[C@@H]3CCCO3)C3CCC(C)(C)CC3)CN2C(=O)[C@@H]2CN(C3CCOCC3)C[C@H]2c2ccc(F)cc2F)CC1 [Example 52, (2S)-N-{(3S,5R)-1-{[(3S,4R)-4-(2,4-difluorophenyl)-1-(tetrahydro-2H-pyran-4-yl)pyrrolidin-3-yl]carbonyl}-5-[(4-isopropylpiperazin-1-yl)carbonyl]pyrrolidin-3-yl}-N-(4,4-dimethylcyclohexyl)tetrahydrofuran-2-carboxamide] | 0.1 to 10 nM | –

Continued, values first:

Row | EC50 [1] | EC50 (specific activities of representative compounds, method A or B, read-out: EC50) | SMILES
8 | 0.1 to 10 nM | – | CN1CCN(C(=O)[C@@H]2C[C@H](N(C(=O)[C@@H]3CCCO3)[C@H]3CC[C@@H](C)CC3)CN2C(=O)[C@@H]2CN(c3ccc(=O)n(C)n3)C[C@H]2c2ccc(Cl)cc2)CC1 [Example 72, (2S)-N-{(3S,5S)-1-{[(3S,4R)-4-(4-chlorophenyl)-1-(1-methyl-6-oxo-1,6-dihydropyridazine-3-yl)pyrrolidin-3-yl]carbonyl}-5-[(4-methylpiperazin-1-yl)carbonyl]pyrrolidin-3-yl}-N-(cis-4-methylcyclohexyl)tetrahydrofuran-2-carboxamide]
9 | 0.1 to 10 nM | 0.2 nM | CN1CCN(C(=O)[C@@H]2C[C@H](N(C(=O)C(C)(C)CO)C3CCC(C)(C)CC3)CN2C(=O)[C@@H]2CN(C(C)(C)C)C[C@H]2c2ccc(Cl)cc2)CC1 [Example 4, N-{(3S,5S)-1-{[(3S,4R)-1-tert-butyl-4-(4-chlorophenyl)pyrrolidin-3-yl]carbonyl}-5-[(4-methylpiperazin-1-yl)carbonyl]pyrrolidine-3-yl}-N-(4,4-dimethylcyclohexyl)-3-hydroxy-2,2-dimethylpropanamide]
10 | 0.1 to 10 nM | – | CN1CCN(C(=O)[C@@H]2C[C@H](N(C(=O)[C@@H]3CCCO3)[C@H]3CC[C@@H](C)CC3)CN2C(=O)[C@@H]2CN(c3ccc(C#N)cn3)C[C@H]2c2ccc(Cl)cc2)CC1 [Example 69, (2S)-N-{(3S,5S)-1-{[(3S,4R)-4-(4-chlorophenyl)-1-(5-cyanopyridine-2-yl)pyrrolidin-3-yl]carbonyl}-5-[(4-methylpiperazin-1-yl)carbonyl]pyrrolidin-3-yl}-N-(cis-4-methylcyclohexyl)tetrahydrofuran-2-carboxamide]
11 | 10 to 100 nM | – | CN1CCN(C(=O)[C@@H]2C[C@H](N(C(=O)[C@@H]3CCCO3)C3CCC(F)(F)CC3)CN2C(=O)[C@@H]2CN(C(C)(C)C)C[C@H]2c2ccc(Cl)cc2)CC1 [Example 31, (2S)-N-{(3S,5S)-1-{[(3S,4R)-1-tert-butyl-4-(4-chlorophenyl)pyrrolidin-3-yl]carbonyl}-5-[(4-methylpiperazin-1-yl)carbonyl]pyrrolidin-3-yl}-N-(4,4-difluorocyclohexyl)tetrahydrofuran-2-carboxamide]
12 | 10 to 100 nM | – | CN1CCN(C(=O)[C@@H]2C[C@H](N(C(=O)[C@@H]3CCCO3)c3ccc(F)cc3F)CN2C(=O)[C@@H]2CN(C(C)(C)C)C[C@H]2c2ccc(Cl)cc2)CC1 [Example 77, (2S)-N-{(3S,5S)-1-{[(3S,4R)-1-tert-butyl-4-(4-chlorophenyl)pyrrolidin-3-yl]carbonyl}-5-[(4-methylpiperazin-1-yl)carbonyl]pyrrolidin-3-yl}-N-(2,4-difluorophenyl)tetrahydrofuran-2-carboxamide]
13 | 100 to 1000 nM | – | CC(=O)N(C1CCC(F)(F)CC1)[C@H]1C[C@@H](C(=O)N2CCN(C(C)C)CC2)N(C(=O)[C@@H]2CN(C(C)(C)C)C[C@H]2c2ccc(Cl)cc2)C1 [Example 29, N-{(3S,5S)-1-{[(3S,4R)-1-tert-butyl-4-(4-chlorophenyl)pyrrolidin-3-yl]carbonyl}5-[(4-isopropylpiperazin-1-yl)carbonyl]pyrrolidin-3-yl}-N-(4,4-difluorocyclohexyl)acetamide]
14 | 0.1 to 10 nM | – | CN1CCN(C(=O)[C@@H]2C[C@H](N(C(=O)C(C)(C)C)C3CCC(C)(C)CC3)CN2C(=O)[C@@H]2CN(C(C)(C)C)C[C@H]2c2ccc(Cl)cc2)CC1 [Example 10, N-{(3S,5S)-1-{[(3S,4R)-1-tert-butyl-4-(4-chlorophenyl)pyrrolidin-3-yl]carbonyl}-5-[(4-methylpiperazin-1-yl)carbonyl]pyrrolidin-3-yl}-N-(4,4-dimethylcyclohexyl)-2,2-dimethylpropanamide]
15 | 10 to 100 nM | – | CN1CCN(C(=O)[C@@H]2C[C@H](N(C(=O)[C@@H]3CCCO3)[C@H]3CC[C@@H](C)CC3)CN2C(=O)[C@H]2CN(C(C)(C)C)C[C@H]2c2ccc(Cl)cc2)CC1 [Example 74, (2S)-N-{(3S,5S)-1-{[(3R,4R)-1-tert-butyl-4-(4-chlorophenyl)pyrrolidin-3-yl]carbonyl}-5-[(4-methylpiperazin-1-yl)carbonyl]pyrrolidin-3-yl}-N-(cis-4-methylcyclohexyl)tetrahydrofuran-2-carboxamide]
